Where a SMILES comes first, the peptide text is derived from it. The star is where a group is joined. pNA = O=[N+]([O-])c1ccc(N*)cc1; MeOSuc = COC(=O)CCC(=O)*

The values that follow come from EP1793006A2, “Nucleic acid ligands and improved methods for producing the same” (priority 1993, dated 1995).

For experiment [1], the target named is TCT8-4 RNA. As to the kind of experiment: Competition binding of xanthine derivatives, equilibrium filtration. Conditions: for Ki: 1 µM 14C-theophylline, 3.3 µM TCT8-4 RNA, read-out: Kc; for Kc(c)/Kc(t): competitor relative to theophylline. How it is done:
An attractive feature of a small molecule-RNA interaction is the opportunity to readily investigate quantitatively the relative contribution of various constituents of the small molecule to the overall binding. Competition binding experiments were conducted with a variety of xanthine derivatives and related compounds. In these experiments, the effect of competitor added at various concentrations on the ^14C-theophylline-TCT8-4 RNA interaction was measured. Of particular interest were the roles of CH3 residues at the 1, 3, and 7 positions; these were assessed both individually and in combination. In addition, 1,3-dimethyluric acid probes the 8-position, as it contains a keto oxygen there relative to theophylline, and hypoxanthine, lacking the 2-position keto oxygen of xanthine, permit assessment of this constituent.
Equilibrium filtration assays were performed by the addition of various concentrations of the potential competitor to 1 µM [^14C]-theophylline and 3.3 µM TCT8-4 RNA (SEQ ID NO:249) in a 150 µl reaction mixture containing 100 mM HEPES buffer. Each reaction was performed as described in Example 23. Competition data were fit using a standard competition equation and fitting procedure (Gill et al. (1991) J. Mol. Biol. 220:307) assuming a 1:1 stoichiometry of competitor to RNA. […] From such data a competitor dissociation constant (Kc) was obtained. Under the condition where theophylline and the specific competitor bind to the same site, Kc = Kd.

The target of experiment [2] is T1, T7 RNA polymerase (Escherichia phage T7, UniProt P00573).
T1 construct: purchased NEB
T1 sequence (P00573 whole entry): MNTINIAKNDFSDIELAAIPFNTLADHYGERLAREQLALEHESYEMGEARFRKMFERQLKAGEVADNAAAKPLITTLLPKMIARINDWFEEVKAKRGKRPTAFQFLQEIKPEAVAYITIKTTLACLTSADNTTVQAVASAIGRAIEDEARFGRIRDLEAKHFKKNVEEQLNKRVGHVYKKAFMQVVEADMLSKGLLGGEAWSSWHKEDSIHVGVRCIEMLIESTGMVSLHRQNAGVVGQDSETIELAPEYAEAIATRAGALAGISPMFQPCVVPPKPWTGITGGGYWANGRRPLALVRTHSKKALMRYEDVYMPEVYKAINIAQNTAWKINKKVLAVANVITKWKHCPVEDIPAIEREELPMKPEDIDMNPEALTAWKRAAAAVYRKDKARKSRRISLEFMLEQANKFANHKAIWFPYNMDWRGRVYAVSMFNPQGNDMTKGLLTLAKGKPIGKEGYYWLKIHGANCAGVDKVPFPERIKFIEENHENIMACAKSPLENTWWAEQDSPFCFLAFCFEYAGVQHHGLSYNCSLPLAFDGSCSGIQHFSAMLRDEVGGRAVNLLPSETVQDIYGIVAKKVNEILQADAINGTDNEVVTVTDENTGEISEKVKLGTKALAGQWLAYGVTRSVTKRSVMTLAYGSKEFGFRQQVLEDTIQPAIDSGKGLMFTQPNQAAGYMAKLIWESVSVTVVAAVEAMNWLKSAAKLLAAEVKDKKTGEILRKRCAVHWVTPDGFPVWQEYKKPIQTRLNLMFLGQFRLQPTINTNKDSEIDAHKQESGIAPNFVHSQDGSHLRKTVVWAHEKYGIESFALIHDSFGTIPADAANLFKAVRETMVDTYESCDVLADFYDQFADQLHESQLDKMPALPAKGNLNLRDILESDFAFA
The experiment is described as follows: Incorporation of modified nucleotide triphosphates into RNA by T7 RNA polymerase transcription. Conditions: for efficiency of transcription (incorporation) as compared to UTP: three hours, 2 mM ribonucleotide triphosphates, 100 nM double-stranded DNA template, 5 units/ul T7 RNA polymerase. Type of experiment: biochemical. As for the experimental part: Incorporation of 5-modified uridines into RNA. Four prototypic 5-modified uridines, 5-AA-UTP, 5-F-12-UTP, 5-Dig-11-UTP, and 5-Br-UTP (shown in Figure 2) were incorporated into RNA by the T7.RNA polymerase under standard transcription conditions (40 mM Tris-Cl, pH 8.0, 12 mM MgCl2, 5 mM DTT, 1 mM spermidine, 0.002% Triton X-100, 4% PEG, 37°C). Autoradiogram of a 15% denaturing polyacrylamide gel showing products of transcription done with UTP, 5-AA-UTP, and 5-Br-UTP is shown in Figure 3. The efficiency of transcription was estimated from the total amounts of ^32P-radiolabelled transcript produced after three hours of incubation with 2 mM ribonucleotide triphosphates, 100 nM double-stranded DNA template, and 5 units/ul of T7 RNA polymerase (NEB). 5-AA-UTP, 5-F-12-UTP, 5-Dig-11-UTP, and 5-Br-UTP were incorporated with 28%, 51%, 23%, and 50% efficiency, respectively, as compared to UTP. No transcription was detectable when UTP was omitted from the transcription mixture.
The 2'-amino group of 2'-amino,2'-deoxyuridine is trifluoroacetylated (Imazawa et al. (1979) J. Org. Chem. 44:2039) in 82% yield. This intermediate is phosphorylated at the 5'-position (Ludwig and Eckstein (1989) J. Org. Chem. 54:631) in 61% yield. The 5-iodo derivative of the 2'-amino,2'-deoxyuridine 5'-triphosphate was prepared by mercuration (Dale et al. (1975) Biochemistry 14:2447) in a single step.
RGD-UTP transcription and purification. RGD-UTP was used in a T7 RNA polymerase reaction by direct substitution for normal UTP, and gave yields that were at least 50% of those obtainable with UTP. The concentration of RGD-UTP and other NTPs was 1 mM; the DNA template contained 5' and 3' fixed regions flanking a 30 base pair random sequence. The RNA transcript was purified by adsorption onto an anion exchange column (Mono Q)in a phosphate buffer containing 6 M urea and 50% formamide, and eluted with a gradient to 1 M NaCl (Figure 16). RGD-RNA eluted as one major peak from the column at a position in the gradient slightly ahead of the elution position of an equivalent RNA transcript made with normal UTP, consistent with the altered charge and perhaps altered conformation of the derivatized RNA.

Experiment [3] deals with T2, Human neutrophil elastase (Homo sapiens, UniProt P08246).
T2 construct: purchased Athens Research and Technology, Athens, Georgia
T2 sequence (P08246 30-267): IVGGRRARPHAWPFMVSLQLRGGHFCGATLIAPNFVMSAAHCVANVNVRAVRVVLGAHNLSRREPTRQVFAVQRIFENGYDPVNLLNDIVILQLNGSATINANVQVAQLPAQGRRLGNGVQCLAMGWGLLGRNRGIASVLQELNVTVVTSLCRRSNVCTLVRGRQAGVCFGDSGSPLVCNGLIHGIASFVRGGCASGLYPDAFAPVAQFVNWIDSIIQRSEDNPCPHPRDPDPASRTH
The experiment is described as follows: Elastase inhibition assay with chromogenic tetrapeptide substrate. Conditions: Lineweaver-Burk plot. Type of experiment: biochemical. The source says:
Elastase inhibition assay. The assay for elastase inhibition is based on the use of a chromogenic tetrapeptide substrate. […] The rate of p-nitroanilide generation in the absence of inhibitor was used as the control.
Elastase Inhibition Assay. The assay for elastase inhibition is based on the use of a chromogenic tetrapeptide substrate. […] The rate of p-nitroanilide generation in the absence of inhibitor was used as the negative control; the positive control contained the irreversible inhibitor N-methoxysuccinyl-Ala-Ala-Pro-Val-chloromethyl ketone. OD values were plotted against time, and the slope used to determine the rate of enzyme activity.

Experiment [4] addresses Human neutrophil elastase (human) (UniProt P08246). The experiment is described as follows: elastase inhibition assay with chromogenic substrate, Lineweaver-Burk plot (Figure 22).

Consider “1-carboxypropyl theophylline [CP-Theophylline]”, for which, in experiment [1], the Ki is 0.93 ± 0.2 µM and the “Kc(c)/Kc(t)” value was 2.9.

For the molecule “5-digoxygenin-11-uridine triphosphate [5-Dig-11-UTP]”, the “efficiency of transcription (incorporation) as compared to UTP” value (“efficiency … compared to UTP” below) in experiment [2] worked out at 23%.

As for “5-fluorescein-12-uridine triphosphate [5-F-12-UTP]”, the “efficiency … compared to UTP” value in experiment [2] was 51%.

Turning to `Cn1c(=O)[nH]c2nc[nH]c2c1=O` [1-methylxanthine], in experiment [1], the Ki turned out to be 9 ± 0.3 µM and the “Kc(c)/Kc(t)” value stood at 28.

Take `N[C@@H]1[C@H](O)[C@@H](COP(=O)(O)OP(=O)(O)OP(=O)(O)O)O[C@H]1n1ccc(=O)[nH]c1=O` [2'-amino,2'-deoxyuridine 5'-triphosphate]: the “substrate for T7 RNA polymerase” value in experiment [2] was “substrates for T7 RNA polymerase”.

On to `Cn1cnc2c1c(=O)[nH]c(=O)n2C` [3,7-dimethylxanthine], for which, in experiment [1], the “recognition by TCT8-4 RNA” value is reported as “recognized poorly”, the Ki is > 500 µM and the “Kc(c)/Kc(t)” value is recorded as > 1500.

In the case of `Cn1c(=O)[nH]c(=O)c2[nH]cnc21` [3-methylxanthine], in experiment [1], the “competition, fold better relative to xanthine” value is “approximately 5 fold”; the Ki amounted to 2 ± 0.7 µM; the “Kc(c)/Kc(t)” value worked out at 6.3.

Take `NCC=Cc1cn(C2OC(COP(=O)(O)OP(=O)(O)OP(=O)(O)O)C(O)C2O)c(=O)[nH]c1=O` (stereo not shown) [5-AA-UTP, 5-(3-aminoallyl)uridine triphosphate]: the “efficiency … compared to UTP” value in experiment [2] is given as 28%.

With `O=c1[nH]c(=O)n([C@@H]2O[C@H](COP(=O)(O)OP(=O)(O)OP(=O)(O)O)[C@@H](O)[C@H]2O)cc1Br` [5-Br-UTP, 5-bromouridine triphosphate], the “efficiency … compared to UTP” value in experiment [2] was 50%.

Take `N[C@@H]1[C@H](O)[C@@H](COP(=O)(O)OP(=O)(O)OP(=O)(O)O)O[C@H]1n1cc(I)c(=O)[nH]c1=O` [5-iodo,2'-amino,2'-deoxyuridine 5'-triphosphate]: the “substrate for T7 RNA polymerase” value in experiment [2] was “substrates for T7 RNA polymerase”.

On to `Cn1cnc2[nH]c(=O)[nH]c(=O)c21` [7-methylxanthine], for which, in experiment [1], the “competition, fold less efficient than xanthine” value is listed as “at least 1500 fold”; the Ki was > 500 µM; the “Kc(c)/Kc(t)” value is recorded as > 1500.

Turning to `Cn1c(=O)c2c(ncn2C)n(C)c1=O` [Caffeine, 1,3,7-trimethylxanthine], in experiment [1], the “recognition by TCT8-4 RNA” value is “extremely poor competitor”, the Ki amounted to 3500 ± 1500 µM and the “Kc(c)/Kc(t)” value was found to be 10900.

Regarding `O=c1[nH]cnc2nc[nH]c12` [Hypoxanthine], in experiment [1], the “competition, fold less efficient than xanthine” value is given as “approximately 5 fold”; the Ki was 49 ± 10 µM; the “Kc(c)/Kc(t)” value was 153.

Regarding `Cn1c(=O)c2[nH]cnc2n(C)c1=O` [Theophylline, 1,3-dimethylxanthine], in experiment [1], the Ki was determined as 0.32 ± 0.13 µM and the “Kc(c)/Kc(t)” value came to 1. Besides, the Kd in experiment [1] (read-out: Kd for theophylline to RNA used for the competition fit) is 0.45 µM.

In the case of `O=c1[nH]c(=O)c2[nH]cnc2[nH]1` [Xanthine], in experiment [1], the “competition, fold less effective than theophylline” value is on record as “about 23 fold”; the Ki turned out to be 8.5 ± 0.4 µM; the “Kc(c)/Kc(t)” value came out at 27.

Consider `COC(=O)CCC(=O)N[C@@H](C)C(=O)N[C@@H](C)C(=O)N1CCC[C@H]1C(=O)N[C@H](C(=O)Nc1ccc([N+](=O)[O-])cc1)C(C)C` [substrate, N-methoxysuccinyl-Ala-Ala-Pro-Val-p-nitroanilide] (MeOSuc-AAPV-pNA), for which the Michaelis constant (Km) in experiment [3] turned out to be 160 µM.

The molecule N-methoxysuccinyl Ala-Ala-Pro-Val registered a Ki in experiment [3] of 920 µM.

For “N-methoxysuccinyl Ala-Ala-Pro-Val (SEQ ID NO:44) (peptide)”, in experiment [4], the Ki stood at 920 µM.
